# Experimental data: patent publication US20150313225A1
# Where two headings read alike, the source gives them in different places.
# Tests used:
# Assay type in all cases: cell-based
# Pyricularia oryzae = experiment: microbe, parasite or virus in culture; conditions: for Observed efficacy: solo product
# Phytophthora infestans = experiment: microbe, parasite or virus in culture; conditions: for Observed efficacy: solo product
# Septoria tritici = experiment: Microtest against leaf blotch on wheat caused by Septoria tritici (Septtr); conditions: solo product; for inhibition of growth at 1.6e-05 ppm: 0.000016 ppm
# Leptosphaeria nodorum = experiment: Microtest against wheat leaf spots caused by Leptosphaeria nodorum (Leptno); conditions: solo product
# Botrytis cinerea = experiment: Microtiterplate test against the grey mold Botrytis cinerea (Botrci); conditions: solo product
# Alternaria solani = experiment: Microtest against early blight caused by Alternaria solani (Alteso); conditions: solo product
# [1] = Pyricularia oryzae, 168 h, read-out: Observed efficacy
# [2] = Phytophthora infestans, 168 h, read-out: Observed efficacy
# [3] = Zymoseptoria tritici, 168 h, read-out: Observed efficacy
# [4] = Zymoseptoria tritici, 168 h, 0.001 ppm, read-out: Observed efficacy
# [5] = Parastagonospora nodorum, 168 h, 0.00025 ppm, read-out: Observed efficacy
# [6] = Botrytis cinerea, 168 h, 0.063 ppm, read-out: Observed efficacy
# [7] = Botrytis cinerea, 168 h, 0.25 ppm, read-out: Observed efficacy
# [8] = Alternaria solani, 168 h, 0.004 ppm, read-out: Observed efficacy
# [9] = Alternaria solani, 168 h, 0.016 ppm, read-out: Observed efficacy
# [10] = Parastagonospora nodorum, 168 h, read-out: Observed efficacy
# [11] = Alternaria solani, 168 h, 0.00025 ppm, read-out: Observed efficacy
# [12] = Botrytis cinerea, 168 h, 1 ppm, read-out: Observed efficacy
# [13] = Alternaria solani, 168 h, 0.063 ppm, read-out: Observed efficacy
# [14] = Parastagonospora nodorum, 168 h, 1 ppm, read-out: Observed efficacy
# [15] = Botrytis cinerea, 168 h, 4 ppm, read-out: Observed efficacy
# [16] = Alternaria solani, 168 h, 0.25 ppm, read-out: Observed efficacy
# [17] = Botrytis cinerea, 168 h, 16 ppm, read-out: Observed efficacy
# [18] = Alternaria solani, 168 h, read-out: Observed efficacy
compound,measurement,setting,value
"CC(O)(Cn1cncn1)c1ccc(Oc2ccc(F)cc2)cc1Cl (stereo not drawn) [I-18, 2-[2-chloro-4-(4-fluorophenoxy)phenyl]-1-(1,2,4-triazol-1-yl)propan-2-ol]",inhibition of growth at 0.016 ppm,Pyricularia oryzae; [1],1%
same,inhibition of growth at 1 ppm,Pyricularia oryzae; [1],5%
same,inhibition of growth at 16 ppm,Phytophthora infestans; [2],15%
same,inhibition of growth at 63 ppm,Phytophthora infestans; [2],19%
same,inhibition of growth at 1.6e-05 ppm,Septoria tritici; [3],4%
same,inhibition of growth at 0.001 ppm,Septoria tritici; [4],4%
same,inhibition of growth at 6.3e-05 ppm,Septoria tritici; [3],0%
same,inhibition of growth at 6.3e-05 ppm,"Leptosphaeria nodorum; Parastagonospora nodorum, 168 h, 0.000063 ppm, read-out: Observed efficacy",22%
same,inhibition of growth at […],Leptosphaeria nodorum; [5],26%
same,inhibition of growth at […],Botrytis cinerea; [6],13%
same,inhibition of growth at […],Botrytis cinerea; [7],44%
same,inhibition of growth at 0.004 ppm,Alternaria solani; [8],0%
same,inhibition of growth at 0.016 ppm,Alternaria solani; [9],7%
"CCC(Cn1cncn1)(OC)c1ccc(Oc2ccc(Cl)cc2)cc1Cl (stereo not drawn) [I-21, 1-[2-[2-chloro-4-(4-chlorophenoxy)phenyl]-2-methoxy-butyl]-1,2,4-triazole]",inhibition of growth at 0.016 ppm,Pyricularia oryzae; [1],1%
same,inhibition of growth at 63 ppm,Phytophthora infestans; [2],29%
same,inhibition of growth at 4e-06 ppm,"Septoria tritici; Zymoseptoria tritici, 168 h, 0.000004 ppm, read-out: Observed efficacy",17%
same,inhibition of growth at 6.3e-05 ppm,Septoria tritici; [3],25%
same,inhibition of growth at […],Leptosphaeria nodorum; [5],12%
same,inhibition of growth at 0.001 ppm,Leptosphaeria nodorum; [10],22%
same,inhibition of growth at […],Botrytis cinerea; [6],18%
same,inhibition of growth at […],Alternaria solani; [11],2%
same,inhibition of growth at 0.004 ppm,Alternaria solani; [8],5%
"CCCC(Cn1cncn1)(OC)c1ccc(Oc2ccc(Cl)cc2)cc1Cl (stereo not drawn) [I-22, 1-[2-[2-chloro-4-(4-chlorophenoxy)phenyl]-2-methoxy-pentyl]-1,2,4-triazole]",inhibition of growth at 63 ppm,Phytophthora infestans; [2],41%
same,inhibition of growth at 0.001 ppm,Septoria tritici; [4],10%
same,inhibition of growth at […],"Leptosphaeria nodorum; Parastagonospora nodorum, 168 h, 0.063 ppm, read-out: Observed efficacy",25%
same,inhibition of growth at […],Botrytis cinerea; [7],1%
same,inhibition of growth at 1 ppm,Botrytis cinerea; [12],34%
same,inhibition of growth at […],Alternaria solani; [13],25%
"C#CCC(O)(Cn1cncn1)c1ccc(Oc2ccc(Cl)cc2)cc1Cl (stereo not drawn) [I-25, 2-[2-chloro-4-(4-chlorophenoxy)phenyl]-1-(1,2,4-triazol-1-yl)pent-4-yn-2-ol]",inhibition of growth at 16 ppm,Phytophthora infestans; [2],0%
same,inhibition of growth at 1.6e-05 ppm,Septoria tritici; [3],12%
same,inhibition of growth at 0.001 ppm,Septoria tritici; [4],37%
same,inhibition of growth at 6.3e-05 ppm,Septoria tritici; [3],12%
same,inhibition of growth at 4e-06 ppm,"Leptosphaeria nodorum; Parastagonospora nodorum, 168 h, 0.000004 ppm, read-out: Observed efficacy",14%
same,inhibition of growth at 1.6e-05 ppm,"Leptosphaeria nodorum; Parastagonospora nodorum, 168 h, 0.000016 ppm, read-out: Observed efficacy",22%
same,inhibition of growth at 0.004 ppm,"Botrytis cinerea; Botrytis cinerea, 168 h, 0.004 ppm, read-out: Observed efficacy",9%
same,inhibition of growth at 0.016 ppm,"Botrytis cinerea; Botrytis cinerea, 168 h, 0.016 ppm, read-out: Observed efficacy",16%
same,inhibition of growth at […],Botrytis cinerea; [6],23%
same,inhibition of growth at […],Botrytis cinerea; [7],49%
same,inhibition of growth at 4e-06 ppm,"Alternaria solani; Alternaria solani, 168 h, 0.000004 ppm, read-out: Observed efficacy",7%
same,inhibition of growth at 6.3e-05 ppm,"Alternaria solani; Alternaria solani, 168 h, 0.000063 ppm, read-out: Observed efficacy",1%
"COCC(O)(Cn1cncn1)c1ccc(Oc2ccc(F)cc2)cc1Cl (stereo not drawn) [I-27, 2-[2-chloro-4-(4-fluorophenoxy)phenyl]-1-methoxy-3-(1,2,4-triazol-1-yl)propan-2-ol]",inhibition of growth at 1 ppm,Pyricularia oryzae; [1],29%
same,inhibition of growth at 63 ppm,Phytophthora infestans; [2],31%
same,inhibition of growth at 1.6e-05 ppm,Septoria tritici; [3],7%
same,inhibition of growth at 0.001 ppm,Septoria tritici; [4],9%
same,inhibition of growth at 6.3e-05 ppm,Septoria tritici; [3],6%
same,inhibition of growth at […],Leptosphaeria nodorum; [5],8%
same,inhibition of growth at 0.001 ppm,Leptosphaeria nodorum; [10],6%
same,inhibition of growth at 0.004 ppm,"Leptosphaeria nodorum; Parastagonospora nodorum, 168 h, 0.004 ppm, read-out: Observed efficacy",15%
same,inhibition of growth at 0.016 ppm,"Leptosphaeria nodorum; Parastagonospora nodorum, 168 h, 0.016 ppm, read-out: Observed efficacy",24%
same,inhibition of growth at […],Botrytis cinerea; [6],22%
same,inhibition of growth at […],Alternaria solani; [11],4%
same,inhibition of growth at 0.001 ppm,"Alternaria solani; Alternaria solani, 168 h, 0.001 ppm, read-out: Observed efficacy",0%
same,inhibition of growth at 0.004 ppm,Alternaria solani; [8],0%
same,inhibition of growth at 0.016 ppm,Alternaria solani; [9],12%
"CO/C=C(/C(=O)OC)c1ccccc1Oc1cc(Oc2ccccc2C#N)ncn1 [II-3, azoxystrobin, reference compound]",Observed efficacy,Pyricularia oryzae; 0.004 ppm,1
same,Observed efficacy,Phytophthora infestans; 0.016 ppm,2
same,Observed efficacy,Septoria tritici; 0.001 ppm,12
same,Observed efficacy,Botrytis cinerea; 4 ppm,14
same,Observed efficacy,Botrytis cinerea; 16 ppm,23
same,Observed efficacy,Alternaria solani; 0.004 ppm,6
same,Observed efficacy,Alternaria solani; 0.016 ppm,14
"N#Cc1c(Cl)c(Cl)c(Cl)c(C#N)c1Cl [II-11, chlorothalonil, reference compound]",inhibition of growth at 0.016 ppm,Phytophthora infestans; [2],2%
same,inhibition of growth at 1 ppm,Leptosphaeria nodorum; [14],28%
same,inhibition of growth at 1 ppm,Botrytis cinerea; [12],23%
same,inhibition of growth at 4 ppm,Botrytis cinerea; [15],41%
same,inhibition of growth at […],Alternaria solani; [13],4%
same,inhibition of growth at […],Alternaria solani; [16],2%
"Cc1ccc(-c2c(Cl)nc(C#N)n2S(=O)(=O)N(C)C)cc1 [II-12, cyazofamid, reference compound]",inhibition of growth at 4 ppm,Pyricularia oryzae; [1],9%
same,inhibition of growth at 0.004 ppm,Phytophthora infestans; [2],8%
same,inhibition of growth at 16 ppm,"Septoria tritici; Zymoseptoria tritici, 168 h, 16 ppm, read-out: Observed efficacy",40%
same,inhibition of growth at 16 ppm,Botrytis cinerea; [17],24%
same,inhibition of growth at 4 ppm,Alternaria solani; [18],14%
same,inhibition of growth at 16 ppm,"Alternaria solani; Alternaria solani, 168 h, 16 ppm, read-out: Observed efficacy",35%
"CN1COCN(Cc2cnc(Cl)s2)/C1=N\[N+](=O)[O-] [II-42c, thiamethoxam, reference compound]",inhibition of growth at 0.016 ppm,Pyricularia oryzae; [1],3%
same,inhibition of growth at 1 ppm,Pyricularia oryzae; [1],56%
same,inhibition of growth at 1 ppm,Phytophthora infestans; [2],1%
same,inhibition of growth at 4 ppm,Phytophthora infestans; [2],2%
same,inhibition of growth at 1 ppm,"Septoria tritici; Zymoseptoria tritici, 168 h, 1 ppm, read-out: Observed efficacy",57%
same,inhibition of growth at 1 ppm,Leptosphaeria nodorum; [14],22%
same,inhibition of growth at 4 ppm,"Leptosphaeria nodorum; Parastagonospora nodorum, 168 h, 4 ppm, read-out: Observed efficacy",51%
same,inhibition of growth at 63 ppm,"Botrytis cinerea; Botrytis cinerea, 168 h, 63 ppm, read-out: Observed efficacy",8%
same,inhibition of growth at […],Alternaria solani; [16],8%
same,inhibition of growth at 1 ppm,"Alternaria solani; Alternaria solani, 168 h, 1 ppm, read-out: Observed efficacy",10%
same,inhibition of growth at 4 ppm,Alternaria solani; [18],51%
"COC(=O)N(OC)c1ccccc1COc1ccn(-c2ccc(Cl)cc2)n1 [II-66, pyraclostrobin, reference compound]",inhibition of growth at 0.004 ppm,Pyricularia oryzae; [1],59%
same,inhibition of growth at 0.016 ppm,Phytophthora infestans; [2],9%
same,inhibition of growth at 0.001 ppm,Septoria tritici; [4],12%
same,inhibition of growth at 0.004 ppm,"Septoria tritici; Zymoseptoria tritici, 168 h, 0.004 ppm, read-out: Observed efficacy",37%
same,inhibition of growth at 6.3e-05 ppm,Septoria tritici; [3],7%
same,inhibition of growth at 4 ppm,Botrytis cinerea; [15],29%
same,inhibition of growth at 16 ppm,Botrytis cinerea; [17],66%
same,inhibition of growth at 0.004 ppm,Alternaria solani; [8],8%
C[N+]1(C)CCCCC1.[Cl-] [Mepiquat-cl],Observed efficacy,Pyricularia oryzae; 1 ppm,2
same,Observed efficacy,Pyricularia oryzae; 4 ppm,1
same,Observed efficacy,Pyricularia oryzae; 16 ppm,4
same,Observed efficacy,Phytophthora infestans; 4 ppm,5
same,Observed efficacy,Septoria tritici; 63 ppm,16
same,Observed efficacy,Leptosphaeria nodorum; 63 ppm,28
same,Observed efficacy,Botrytis cinerea; 16 ppm,11
same,Observed efficacy,Alternaria solani; 16 ppm,10
same,Observed efficacy,Alternaria solani; 63 ppm,16
OC(Cc1ccccc1Cl)(Cn1nc[nH]c1=S)C1(Cl)CC1 (stereo not drawn) [Prothioconazol],Observed efficacy,Pyricularia oryzae; 1 ppm,13
same,Observed efficacy,Pyricularia oryzae; 4 ppm,23
same,Observed efficacy,Phytophthora infestans; 1 ppm,4
same,Observed efficacy,Phytophthora infestans; 4 ppm,12
same,Observed efficacy,Phytophthora infestans; 16 ppm,35
same,Observed efficacy,Septoria tritici; 0.016 ppm,17
same,Observed efficacy,Leptosphaeria nodorum; 1 ppm,43
same,Observed efficacy,Botrytis cinerea; 1 ppm,36
same,Observed efficacy,Botrytis cinerea; 4 ppm,72
same,Observed efficacy,Alternaria solani; 1 ppm,66
